The text below walks through data of patent US10300067B2, “Tetrahydropyridopyrimidine compound or salt thereof” (TAIHO PHARMACEUTICAL CO., LTD., priority 2014, dated 2019).

Common to all, as to format: cell-based
One assay concerns the target human androgen receptor (Homo sapiens (Human), UniProt P10275). Nature of the assay: Antagonist activity for AR (pMMTV-luc reporter transcription activity in transfected COS-7 cells, DHT 1 nmol/L). The note with it: for IC50: 50% transcription activity inhibition concentration, COS-7 cells with pMMTV-luc and pEX-hAR, DHT 1 nmol/L, 24 hours; for antagonist activity for AR (in words): COS-7 reporter assay. How it is done:
Antagonist activity for AR was evaluated according to the following method. COS-7 cells (ATCC) were transfected with pMMTV-luc vector (reporter plasmid having, as an androgen response element, […] long terminal repeat) and pEX-hAR vector (human androgen receptor expression vector: which expresses human AR gene under control of CMV promoter) by using Nucleofector (registered trademark) Kit R (Lonza) as a transfection reagent and Amaxa (Lonza). The COS-7 cells obtained after transfection were seeded in a clear bottom 96 well microplate (BD) at 1.5×10^4/well with phenol red free RPMI1640 containing 10% charcoal-treated fetal bovine serum (hereinbelow, DCC-FBS) (hereinbelow, the medium is referred to as an evaluation medium), and then cultured overnight. […] Then, the transcription activity value was measured. The transcription activity was measured by using Bright-Glo™ Luciferase Assay System (Promega).

For another assay, the target named is androgen receptor (Homo sapiens (Human), UniProt P10275, T878A). Nature of the assay: Activity of reducing expression level of androgen receptor (Western blotting of LNCaP cell lysate). The note with it: 48 hours. Here is the method: AR positive human prostate cancer cells LNCaP were seeded in a clear bottom 6 well microplate (BD) at 3.5×10^5/well with phenol red free RPMI1640 containing 5% FBS (hereinbelow, the medium is referred to as an evaluation medium), and then cultured overnight. The culture was added with the evaluation medium containing the compound of Examples or the compound of Comparative Examples such that the final concentration of the compound of Examples or the compound of Comparative Examples was 10000 nmol/L, followed by culture for 48 hours. After culture for 48 hours, the medium was removed and the cells were washed with PBS and added with 0.1 mL of Lysis buffer (M-PER added with Protease Inhibitor Cocktail), followed by keeping at 4° C. for 20 minutes. After cell lysis, the cell solution was centrifuged to recover the supernatant as cell lysate. […] The antibody-reacting band (anti AR receptor) was quantified by LAS-3000 (FUJIFILM) using Super Signal West Pico Substrate (Thermo Scientific) as a detection reagent.
Sequence of androgen receptor (P10275 whole entry T878A): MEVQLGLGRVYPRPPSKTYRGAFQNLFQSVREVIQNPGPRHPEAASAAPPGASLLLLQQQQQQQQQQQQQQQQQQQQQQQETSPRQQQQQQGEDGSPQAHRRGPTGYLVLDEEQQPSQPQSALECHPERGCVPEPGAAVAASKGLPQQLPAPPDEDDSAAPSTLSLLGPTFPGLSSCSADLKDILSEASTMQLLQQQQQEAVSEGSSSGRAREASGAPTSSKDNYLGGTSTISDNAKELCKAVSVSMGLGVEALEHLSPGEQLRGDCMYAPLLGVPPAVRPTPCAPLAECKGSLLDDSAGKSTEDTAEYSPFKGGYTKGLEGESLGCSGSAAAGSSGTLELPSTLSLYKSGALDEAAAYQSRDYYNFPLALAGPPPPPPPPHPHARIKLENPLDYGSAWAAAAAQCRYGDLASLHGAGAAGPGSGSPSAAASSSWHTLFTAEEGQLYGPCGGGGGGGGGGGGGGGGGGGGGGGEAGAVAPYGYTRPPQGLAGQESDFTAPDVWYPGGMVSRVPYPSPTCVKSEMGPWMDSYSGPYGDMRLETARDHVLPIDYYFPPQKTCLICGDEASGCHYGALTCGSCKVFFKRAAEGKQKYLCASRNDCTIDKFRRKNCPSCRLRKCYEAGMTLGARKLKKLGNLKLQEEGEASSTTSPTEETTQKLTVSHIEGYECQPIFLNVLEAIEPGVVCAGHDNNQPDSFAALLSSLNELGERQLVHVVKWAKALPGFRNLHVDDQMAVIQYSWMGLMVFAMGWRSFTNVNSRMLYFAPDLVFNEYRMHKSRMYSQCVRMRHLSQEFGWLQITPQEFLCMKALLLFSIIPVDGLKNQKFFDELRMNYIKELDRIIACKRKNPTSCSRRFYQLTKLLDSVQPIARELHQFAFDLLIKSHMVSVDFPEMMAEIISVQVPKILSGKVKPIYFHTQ

Assay [1] has as its system AR positive human prostate cancer cells VCaP. Kind of assay: Agonist activity for AR (cell proliferation rate of VCaP cells). To be noted: 72 hours, 2 to 10000 nmol/L, more than 10% at any concentration = agonist activity for AR. How it is done:
AR positive human prostate cancer cells VCaP (In Vivo 15:163-168, 2001) were seeded in a clear bottom 96 well microplate (BD) at 1.5×10^4/well with phenol red free RPMI1640 containing 5% DCC-FBS (hereinbelow, the medium is referred to as an evaluation medium), and then cultured overnight. The culture was added with the evaluation medium containing the compound of Examples or the compound of Comparative Examples (final concentration of the compound of Examples or the compound of Comparative Examples: 2, 5, 14, 41, 123, 370, 1111, 3333, or 10000 nmol/L), followed by culture for 72 hours. Then, the number of viable cells was counted (test group). As a control, the cells were cultured after being added with the evaluation medium only, and the number of viable cells was counted (control group). The number of viable cells was measured by using CellTiter-Glo™ Luminescent Cell Viability Assay (Promega). From the measured number of viable cells, cell proliferation rate with respect to the compound of Examples or the compound of Comparative Examples was calculated based on the number of viable cells measured in the case of using the evaluation medium only. Cell proliferation rate (%) =(Number of viable cells in test group−Number of viable cells in control group)/(Number of viable cells in control group)×100
By considering an error in the number of viable cells measured in the case of using the evaluation medium only, when the cell proliferation rate was more than 10% at any concentration of the 9 concentrations which had been evaluated, it was determined to have an agonist activity for AR.

Sequence of human androgen receptor (P10275 whole entry): as the sequence (P10275 whole entry T878A) above, with A878T counted along it

For the compound `CC(C)Oc1ccc(Nc2ncnc3c2CN(c2ccc(C#N)c(C(F)(F)F)c2)CC3)cc1` [Comparative Example 2, 4-(4-((4-Isopropoxyphenyl)amino)-7,8-dihydropyrido[4,3-d]pyrimidin-6(5H)-yl)-2-(trifluoromethyl)benzonitrile, reference compound], at human androgen receptor, the half-inhibitory concentration (IC50) was more than 10000 nM and the “antagonist activity for AR (in words)” value was “no antagonist activity for AR”. Also, at androgen receptor, the “10 μM AR expression reducing activity” value is given as less than 10%. For `CC(C)(O)c1ccc(Nc2ncnc3c2CCN(c2ccc(C#N)cc2Cl)C3)nc1` [Comparative Example 5, 3-Chloro-4-(4-((5-(2-hydroxypropan-2-yl)pyridin-2-yl)amino)-5,6-dihydropyrido[3,4-d]pyrimidin-7(8H)-yl)benzonitrile, reference compound], the IC50 against human androgen receptor was more than 10000 nM. The same measure, in the same setting: to `CC(C)(O)c1ccc(Nc2ncnc3c2CCN(c2cc(Cl)cc(C#N)c2)C3)nc1` [Comparative Example 6, 3-Chloro-5-(4-((5-(2-hydroxypropan-2-yl)pyridin-2-yl)amino)-5,6-dihydropyrido[3,4-d]pyrimidin-7 (8H)-yl)benzonitrile, reference compound] belongs more than 10000 nM; to `CC(C)(O)c1ccc(Nc2ncnc3c2CCN(c2cccc(Cl)c2C#N)C3)nc1` [Comparative Example 7, 2-Chloro-6-(4-((5-(2-hydroxypropan-2-yl)pyridin-2-yl)amino)-5,6-dihydropyrido[3,4-d]pyrimidin-7 (8H)-yl)benzonitrile, reference compound], more than 10000 nM. At human androgen receptor, `N#Cc1cc(C(F)(F)F)ccc1N1CCc2c(ncnc2Nc2ccc(C(=O)NCC(F)(F)F)cn2)C1` [Comparative Example 8, 6-((7-(2-Cyano-4-(trifluoromethyl)phenyl)-5,6,7,8-tetrahydropyrido[3,4-d]pyrimidin-4-yl)amino)-N-(2,2,2-trifluoroethyl)nicotinamide, reference compound] gave a half-inhibitory concentration (IC50) of more than 10000 nM. Compound `N#Cc1ccc(C(F)(F)F)cc1N1CCc2c(ncnc2Nc2ccc(C(=O)NCC(F)(F)F)cn2)C1` [Comparative Example 9, 6-((7-(2-Cyano-5-(trifluoromethyl)phenyl)-5,6,7,8-tetrahydropyrido[3,4-d]pyrimidin-4-yl)amino)-N-(2,2,2-trifluoroethyl)nicotinamide, reference compound] had an IC50 at human androgen receptor of more than 10000 nM. On to `N#Cc1cccc(N2CCc3c(ncnc3Nc3ccc(C(=O)NCC(F)(F)F)cn3)C2)c1C(F)(F)F` [Comparative Example 10, 6-((7-(3-Cyano-2-(trifluoromethyl)phenyl)-5,6,7,8-tetrahydropyrido[3,4-d]pyrimidin-4-yl)amino)-N-(2,2,2-trifluoroethyl)nicotinamide, reference compound], for which the IC50 against human androgen receptor was more than 10000 nM. On to `CC(C)(O)c1ccc(Nc2ncnc3c2CCN(c2ccc(C#N)cc2)C3)nc1` [Comparative Example 11, 4-(4-((5-(2-Hydroxypropan-2-yl)pyridin-2-yl)amino)-5,6-dihydropyrido[3,4-d]pyrimidin-7(8H)-yl)benzonitrile, reference compound], for which, on human androgen receptor, the concentration for half-maximal inhibition (IC50) was more than 10000 nM and the “antagonist activity for AR (in words)” value is “did not show the antagonist activity for AR”. Turning to `N#Cc1ccc(N2CCc3c(ncnc3Nc3ccc(OCCn4ccnn4)nc3)C2)cc1C(F)(F)F` [Example 15, 4-(4-((6-(2-(1H-1,2,3-Triazol-1-yl)ethoxy)pyridin-3-yl)amino)-5,6-dihydropyrido[3,4-d]pyrimidin-7 (8H)-yl)-2-(trifluoromethyl)benzonitrile], the IC50 at human androgen receptor was found to be 130 nM. In addition, the “Cell proliferation rate (%)” value in assay [1] was found to be 0.3%. For `N#Cc1ccc(N2CCc3c(ncnc3Nc3ccc(NC(=O)OCC(F)(F)F)cn3)C2)cc1C(F)(F)F` [Example 21, 2,2,2-Trifluoroethyl (6-((7-(4-cyano-3-(trifluoromethyl)phenyl)-5,6,7,8,-tetrahydropyrido[3,4-d]pyrimidin-4-yl)amino)pyridin-3-yl)carbamate], in that order: 380 nM and −0.6%.

Regarding `N#Cc1ccc(N2CCc3c(ncnc3Nc3ccc(CC(=O)NCC(F)(F)F)cn3)C2)cc1C(F)(F)F` [Example 22, 2-(6-((7-(4-Cyano-3-(trifluoromethyl)phenyl)-5,6,7,8-tetrahydropyrido[3,4-d]pyrimidin-4-yl)amino)pyridin-3-yl)-N-(2,2,2-trifluoroethyl)acetamide], 370 nM corresponded to half-maximal inhibition on human androgen receptor (IC50). On human androgen receptor, `N#Cc1ccc(N2CCc3c(ncnc3Nc3ncc(C(=O)NCC(F)(F)F)nn3)C2)cc1C(F)(F)F` [Example 25, 3-((7-(4-Cyano-3-(trifluoromethyl)phenyl)-5,6,7,8-tetrahydropyrido[3,4-d]pyrimidin-4-yl)amino)-N-(2,2,2-trifluoroethyl)-1,2,4-triazine-6-carboxamide] displayed a half-inhibitory concentration (IC50) of 3320 nM. For the same compound, the “Cell proliferation rate (%)” value in assay [1] came out at 6.3%. In turn, `N#Cc1ccc(N2CCc3c(ncnc3Nc3cc(C(=O)NCC(F)(F)F)ccn3)C2)cc1C(F)(F)F` [Example 31, 2-((7-(4-Cyano-3-(trifluoromethyl)phenyl)-5,6,7,8-tetrahydropyrido[3,4-d]pyrimidin-4-yl)amino)-N-(2,2,2-trifluoroethyl)isonicotinamide] showed a 50% inhibitory concentration (IC50) at human androgen receptor of 390 nM. Same read-out and setting: in the case of `CC(C)(O)C1CCN(C(=O)c2nnc(Nc3ncnc4c3CCN(c3ccc(C#N)c(C(F)(F)F)c3)C4)o2)CC1` [Example 43, 4-(4-((5-(4-(2-Hydroxypropan-2-yl)piperidin-1-carbonyl)-1,3,4-oxadiazol-2-yl)amino)-5,6-dihydropyrido[3,4-d]pyrimidin-7(8H)-yl)-2-(trifluoromethyl)benzonitrile] it was 790 nM; in that of `CC(C)(O)c1cnc(Nc2ncnc3c2CCN(c2ccc(C#N)c(Cl)c2)C3)cc1F` [Example 45, 2-Chloro-4-(4-((4-fluoro-5-(2-hydroxypropan-2-yl)pyridin-2-yl)amino)-5,6-dihydropyrido[3,4-d]pyrimidin-7 (8H)-yl)benzonitrile], 940 nM. Regarding `N#Cc1ccc(N2CCc3c(ncnc3Nc3ccc(C(=O)NCC(F)F)nc3)C2)cc1C(F)(F)F` [Example 48, 5-((7-(4-Cyano-3-(trifluoromethyl)phenyl)-5,6,7,8-tetrahydropyrido[3,4-d]pyrimidin-4-yl)amino)-N-(2,2-difluoroethyl)picolinamide], the IC50 at human androgen receptor was found to be 490 nM. In assay [1], the “Cell proliferation rate (%)” value was −2.6%. At human androgen receptor, `CC(C)(COc1ccc(Nc2ncnc3c2CCN(c2ccc(C#N)c(Cl)c2)C3)nc1)n1cnnn1` [Example 53, 2-Chloro-4-(4-((5-(2-methyl-2-(1H-tetrazol-1-yl)propoxy)pyridin-2-yl)amino)-5,6-dihydropyrido[3,4-d]pyrimidin-7(8H)-yl)benzonitrile] gave an IC50 of 55 nM.

Take `COc1ccc(Nc2ncnc3c2CCN(c2ccc(C#N)c(Cl)c2)C3)cc1` [Example 54, 2-Chloro-4-(4-((4-methoxyphenyl)amino)-5,6-dihydropyrido[3,4-d]pyrimidin-7(8H)-yl)benzonitrile]: the “Cell proliferation rate (%)” value in assay [1] worked out at 3.4%. The same measure, in the same setting: in the case of `COc1cccc(Nc2ncnc3c2CCN(c2ccc(C#N)c(Cl)c2)C3)c1` [Example 55, 2-Chloro-4-(4-((3-methoxyphenyl)amino)-5,6-dihydropyrido[3,4-d]pyrimidin-7(8H)-yl)benzonitrile] it was 1.0%.

As to `N#Cc1ccc(N2CCc3c(ncnc3Nc3ccc(C4(O)CCC4)c(F)n3)C2)cc1Cl` [Example 56, 2-Chloro-4-(4-((6-fluoro-5-(1-hydroxycyclobutyl)pyridin-2-yl)amino)-5,6-dihydropyrido[3,4-d]pyrimidin-7 (8H)-yl)benzonitrile], the IC50 against human androgen receptor came out at 840 nM. For the same compound, the “Cell proliferation rate (%)” value in assay [1] came out at 8.0%.

`CC(O)c1ccc(Nc2ncnc3c2CCN(c2ccc(C#N)c(C(F)(F)F)c2)C3)cc1` (centres unmarked) [Example 58]: the “Cell proliferation rate (%)” value in assay [1] is 2.0%.
